Measurements from US5646027A, “Process for the production of gelatinase catalytic domain protein” (Warner-Lambert Company, priority 1994, dated 1997).

How the values were obtained:
[1] = molecular target: T1, human 72 kDa gelatinase catalytic domain (GCD), reconstructed 19 kDa protein lacking propeptide, C-terminal domain and fibronectin-like insert, Seq ID No: 1 (Homo sapiens, UniProt P08253, DEL214-387); assay: Inhibition of GCD cleavage of thiopeptolide by amino acid derivatives; assay type: biochemical; settings: for GCD IC50: 17.3 nM GCD, 100 μM thiopeptolide, 10 mM CaCl2, 10 μM ZnCl2, MOPS pH 7.0; for GCD Ki: derived from IC50 by Ki=IC50/(1+[substrate]/Km), substrate 100 μM, Km 134 μM
T1 construct: starting at Ala at position -2 and ending at Ile at 168; made in house; host or cells: E. coli BL21(DE3)/pLysS
Experimental: The 100 μL assay mixture typically contained 50 mM MOPS (pH 7.0), 1 mM DTNB, 100 μM thiopeptolide, 10 mM CaCl2, 10 μM ZnCl2, and the enzyme.
The compounds tested for GCD inhibition were obtained from Bachem. […] Inhibition was initially tested at inhibitor concentrations of 100 and 500 μM. […] The determinations were repeated three times.

[2] = molecular target: stromelysin catalytic domain (SCD), C-terminally truncated human stromelysin, Seq ID No: 2 (Homo sapiens, UniProt P08254); settings: taken from Ye Q. Z., et al., J. Med. Chem., 1994;37:206-209; cited from earlier work
[3] = molecular target: fluorogenic peptide Mca-Pro-Leu-Gly-Leu-Dpa-Ala-Arg-NH2
[4] = molecular target: thiopeptolide Ac-Pro-Leu-Gly-thioester-Leu-Leu-Gly-OEt
[5] = molecular target: fluorogenic peptide Dnp-Pro-Leu-Gly-Leu-Trp-Ala-D-Arg-NH2

T1 sequence (P08253 with tags, fused parts or gaps DEL214-387): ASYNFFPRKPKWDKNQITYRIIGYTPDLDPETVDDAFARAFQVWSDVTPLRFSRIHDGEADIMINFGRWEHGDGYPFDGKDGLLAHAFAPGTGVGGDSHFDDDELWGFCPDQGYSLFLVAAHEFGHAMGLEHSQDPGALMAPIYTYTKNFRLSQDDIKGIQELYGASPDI
Chain of stromelysin catalytic domain (SCD), C-terminally truncated human stromelysin, Seq ID No: 2 (P08254 100-273): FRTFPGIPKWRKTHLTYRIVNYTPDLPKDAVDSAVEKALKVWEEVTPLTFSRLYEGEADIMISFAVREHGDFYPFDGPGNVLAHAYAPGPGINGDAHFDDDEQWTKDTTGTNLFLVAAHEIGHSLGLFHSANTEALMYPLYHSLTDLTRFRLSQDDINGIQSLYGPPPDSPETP
Chain of stromelysin catalytic domain (SCD), C-terminally truncated stromelysin (enzyme) (P08254 100-273 limits assumed): as the sequence (P08254 100-273) above

Row | Compound | GCD IC50 [1] | GCD Ki [1] | IC50 [2] | further results
1 | N[C@@H](Cc1c[nH]c2ccccc12)C(=O)O [Compound 3, H-L-Trp-OH] | > 500 µM | – | > 500 µM | GCD inhibition (in words) ([1]; tested at 100 and 500 μM): not active
2 | O=C(N[C@H](Cc1ccc(O)cc1)C(=O)O)OCc1ccccc1 [Compound 8, Cbz-D-Tyr-OH] | > 500 µM | – | – | –
3 | O=C(N[C@@H](Cc1ccc(O)cc1)C(=O)O)OCc1ccccc1 [Compound 7, Cbz-L-Tyr-OH] | 10.4 ± 0.4 µM | 6.0 µM | – | –
4 | N[C@H](Cc1c[nH]c2ccccc12)C(=O)O [Compound 4, H-D-Trp-OH] | > 500 µM | – | > 500 µM | –
5 | human 72 kDa gelatinase catalytic domain protein (GCD), without propeptide, C-terminal domain and fibronectin-like insert (enzyme) | – | – | – | Catalytic efficiency kcat/Km in cleaving the fluorogenic peptide [3]: 184000 M⁻¹ s⁻¹; Catalytic efficiency kcat/Km in cleaving the thiopeptolide [4]: 119000 M⁻¹ s⁻¹; Catalytic efficiency kcat/Km in cleaving the fluorogenic peptide [5]: 112000 M⁻¹ s⁻¹
6 | stromelysin catalytic domain (SCD), C-terminally truncated stromelysin (enzyme) | – | – | – | Catalytic efficiency kcat/Km in cleaving the fluorogenic peptide [3]: 10000 M⁻¹ s⁻¹; Catalytic efficiency kcat/Km in cleaving the thiopeptolide [4]: 7840 M⁻¹ s⁻¹; Catalytic efficiency kcat/Km in cleaving the fluorogenic peptide [5]: 13700 M⁻¹ s⁻¹
7 | CC(C)(C)OC(=O)N[C@H](Cc1c[nH]c2ccccc12)C(=O)O [Compound 6, Boc-D-Trp-OH] | > 500 µM | – | 100 to 500 µM | –
8 | O=C(N[C@@H](Cc1ccccc1)C(=O)O)OCc1ccccc1 [Compound 9, Cbz-L-Phe-OH] | 21 ± 1 µM | 12 µM | – | –

More lines, main results first:

Row | GCD IC50 [1] | GCD Ki [1] | Compound | IC50 [2] | further results
9 | 100 to 500 µM | – | O=C(N[C@H](Cc1ccccc1)C(=O)O)OCc1ccccc1 [Compound 10, Cbz-D-Phe-OH] | > 500 µM | –
10 | 57 ± 4 µM | 33 µM | CC(C)(C)OC(=O)N[C@@H](Cc1c[nH]c2ccccc12)C(=O)O [Compound 5, Boc-L-Trp-OH] | – | –
